Test results taken from publication PMC4186413, “Identification of metabolic pathways and enzyme systems involved in the in vitro human hepatic metabolism of dronedarone, a potent new oral antiarrhythmic drug” (Pharmacology Research & Perspectives, 2014).

What was measured:
[1] = Oxidative metabolism by human hepatic microsomal fractions with or without NADPH; format: in vitro ADME; conditions: 1 mg·mL^−1, 5 μmol/L, 30 min
Procedure: Human hepatic microsomal fractions were obtained from a large pool of human liver (150 individuals) prepared by BD Gentest-Biosciences (BD UltraPool™ HLM 150 – catalogue reference, 452118 Easy Count Box, Woburn, MA). This pooled human liver microsomal batch was also validated internally by the use of FDA-recommended CYP probes (FDA guidance for Industry, draft guidance February 2012).
For oxidative pathways, the assay mixture was composed of human liver microsomes (1 mg·m·L^−1) or microsomes of baculovirus-infected cells expressing human enzymes (100 pmol·mL^−1 for CYPs and 1 mg·mL^−1 for FMOs and MAOs), nicotinamide adenine dinucleotide phosphate reduced form (NADPH) (1 mmol/L), 100 mmol/L potassium phosphate (pH 7.4), and 5 μmol/L of the investigated compound dissolved in DMSO in a final volume of 500 μL.
The final concentration of DMSO in the reaction mixture was less than 1% (v/v). Initial rate conditions with respect to time and protein concentration for both the disappearance of unchanged drug and the formation of respective metabolites were established in preliminary studies. The enzyme reaction was initiated by addition of NADPH (10 mmol/L aqueous solution) to achieve a final concentration of 1 mmol/L for oxidative CYP- and FMO-dependent reactions or by the drug for MAO-dependent reactions, incubated at 37°C and stopped after 0–30 min by addition of one volume of ice-cold acetonitrile.
After removal of the proteins by centrifugation at 10,000 rpm for 10 min, a portion of the supernatant was analyzed by LC-UV-MS.
In human liver microsomes and recombinant isoforms, the percentage of metabolism was determined on the basis of unchanged drug disappearance, using the following equation [drawing 1] where UDt = 30 min represents the unchanged drug peak area after a 30-min incubation period and UDt = 0, the unchanged drug peak area at t = 0.
Dronedarone and its metabolites were incubated over 30 min with human hepatic microsomal fractions (1 mg·mL^−1) at a final concentration of 5 μmol/L, in the absence or the presence of 1 mmol/L NADPH, the cofactor for CYP- and FMO-dependent reactions.

[2] = test system: cryopreserved human hepatocytes in primary culture; experiment: Unchanged drug disappearance / intrinsic metabolic clearance in primary cultures of cryopreserved human hepatocytes; format: in vitro ADME; conditions: for In vitro intrinsic hepatic clearance, Mean ± SD: mean of four hepatocyte preparations
Procedure: Cryopreserved human hepatocytes were plated on 48-well collagen-coated plastic plates in a chemically defined medium adapted from Isom and Georgoff ([1984]), consisting of a 50/50 (v/v) mixture of Ham F12/Williams E medium supplemented with 10% decomplemented fetal calf serum, 10 mg/L insulin, 0.8 mg/L glucagon and antibiotics (100 IU penicillin and 100 μg/mL streptomycin). After 4–6 h at 37°C in a 5% CO2 and 100% humidified atmosphere, period during which hepatocytes attached to the collagen-matrix, the plating medium was removed and replaced by the same serum-free culture medium supplemented with HEPES (3.6 g/L), ethanolamine (4 mg/L), transferrin (10 mg/L), linoleic acid albumin (1.4 mg/L), glucose (252 mg/L), sodium pyruvate (44 mg/L), ascorbic acid (50 mg/L), arginine (104 mg/L), and L-glutamine (0.7 g/L).
(§1) Experiments were performed in 48-well plastic plates coated with rat tail Collagen type I. Plates were seeded with 0.16 × 10^5 hepatocytes per well in a final volume of 0.2 mL and incubated at 37°C under a 95% humidified air and 5% CO2 atmosphere. After 3 h during which cells were allowed to attach, the medium was renewed with 0.1 mL serum-free medium. Then, the investigated drug or metabolic probe(s) were added directly to the incubation medium in the absence or the presence of inhibitors such as either ketoconazole as a specific and potent CYP3A inhibitor (3 μmol/L final concentration), clorgyline (0.25 μmol/L final concentration) as a potent MAO-A inhibitor or ABT as a potent but nonselective CYP isoforms inhibitor (1 mmol/L final concentration) (Fabre et al. [1988]; Bourrié et al. [1996]; Klieber et al. [2008]). Regardless of the final concentration investigated, the final solvent (DMSO) concentration never exceeded 0.2% (v/v).
(§2) To determine the metabolism of the different compounds (metabolic probes, dronedarone, N-debutyl-dronedarone, propanoic acid-dronedarone, phenol-dronedarone, and C-dealkyl-dronedarone), kinetic studies were performed over 0–24 h. For each time point, 0.1 mL of acetonitrile was added to the specific well for protein precipitation, and both extracellular medium and the cell fraction were scraped together. Cell extracts were transferred to a glass tube and stored at −20°C until analysis. Before analysis, cell homogenates were sonicated for a few seconds, homogenized and centrifuged at 6000 g for 10 min. Supernatant fluids were then analyzed for the different drugs and their specific metabolites.
LC/MS-MS analysis was performed using an Acquity UPLC System I-Class equipped with a Waters Acquity UPLC BEH C18 column (2.1 mm i.d. × 100 mm length, 1.7 μm particle size) coupled to a Xevo TQS mass spectrometer (all from Waters, Milford, MA) used in electrospray ion positive mode.
In human hepatocytes, the intrinsic in vitro metabolic clearances (Clint) were calculated using WinNonLin PK analysis software version 5.2. All disappearance kinetics data were fitted with a model using the following equation: [drawing 2] where ke is the elimination rate constant expressed in h^−1, and V is the incubation volume expressed in mL normalized to 10^6 hepatocytes. The equation was applied to the initial (linear) part of the concentration–time curve.
(§3) The kinetics of drug disappearance were investigated using four different cryopreserved human hepatocyte preparations in primary cultures following incubation with either dronedarone or its metabolites at a concentration of 5 μmol/L. Incubations were performed either in the absence, that is control conditions, or in the presence of enzyme system inhibitors such as 3 μmol/L ketoconazole (specific and potent inhibitor of CYP3A4/5), 1 mmol/L ABT (a potent and […] inhibitor of total CYPs), or 0.25 μmol/L clorgyline (a potent MAO-A inhibitor) (Dorris [1982]). Kinetic studies were performed over 24 h.

[3] = test system: CYP3A4; experiment: Contribution of CYP3A4 to hepatocyte clearance (ketoconazole inhibitory effect); format: in vitro ADME, human; conditions: for Effect of ketoconazole on metabolism in hepatocytes: 5 μmol/L drug; for fm CYP3A4, Mean ± SD: mean of hepatocyte preparations
Procedure: as §1, §2
The fraction metabolized (fm) by MAO, CYP3A or total CYPs was determined using the following equation: [drawing 3] where: kei is the elimination rate constant (expressed in h^−1) in the presence of the inhibitor.
as §3

[4] = hepatocyte preparation BD-91, 5 μmol/L
[5] = hepatocyte preparation BD-296, 5 μmol/L
[6] = hepatocyte preparation HU-1359, 5 μmol/L
[7] = hepatocyte preparation IVT-IBG, 5 μmol/L

Row | Parent drug metabolized by human hepatic microsomes ([1]; absence of NADPH) | Parent drug metabolized by human hepatic microsomes ([1]; presence of 1 mmol/L NADPH) | In vitro intrinsic hepatic clearance [2, 4] | In vitro intrinsic hepatic clearance [2, 5] | In vitro intrinsic hepatic clearance [2, 6] | In vitro intrinsic hepatic clearance [2, 7] | In vitro intrinsic hepatic clearance, Mean ± SD ([2]; 5 μmol/L) | In vitro intrinsic hepatic clearance, Mean ± SD ([2]; 5 μmol/L, listed as phenol-dronedarone) | Effect of ketoconazole on metabolism in hepatocytes ([3]; 3 μmol/L ketoconazole) | Drug metabolized within 6 h of incubation ([2]; 5 μmol/L, control conditions) | fm CYP3A4 ([3]; BD-91, 3 μmol/L ketoconazole) | fm CYP3A4 ([3]; BD-296, 3 μmol/L ketoconazole) | fm CYP3A4 ([3]; HU-1358, 3 μmol/L ketoconazole) | fm CYP3A4 ([3]; IVT-IBG, 3 μmol/L ketoconazole) | fm CYP3A4, Mean ± SD ([3]; 3 μmol/L ketoconazole) | Mean maximal concentration of metabolite formed ([2]; hepatocytes incubated with 5 μmol/L dronedarone, control conditions without inhibitors) | SMILES
1 | very slow | very slow | 0.44 mL·h^−1·10^6 cells | 0.70 mL·h^−1·10^6 cells | 0.57 mL·h^−1·10^6 cells | 0.75 mL·h^−1·10^6 cells | 0.62 ± 0.12 mL·h^−1·10^6 cells | 0.61 ± 0.12 mL·h^−1·10^6 cells | did not contribute | – | – | – | – | – | – | – | CCCCc1oc2ccc(NS(C)(=O)=O)cc2c1C(=O)c1ccc(O)cc1 [Phenol-dronedarone]
2 | not metabolized | ~60% | 0.49 mL·h^−1·10^6 cells | 0.58 mL·h^−1·10^6 cells | 0.14 mL·h^−1·10^6 cells | 0.10 mL·h^−1·10^6 cells | 0.33 ± 0.21 mL·h^−1·10^6 cells | – | predominant inhibitory effect | more than 80% | 95% | 95% | 84% | 80% | 89 ± 7% | – | CCCCc1oc2ccc(NS(C)(=O)=O)cc2c1C(=O)c1ccc(OCCCN(CCCC)CCCC)cc1.Cl [Dronedarone, N-(2-Butyl-3-(4-(3-(dibutylamino)propoxy)benzoyl)-5-benzofuranyl)methanesulfonamide, hydrochloride]
3 | No metabolism was observed | No metabolism was observed | 0.003 mL·h^−1·10^6 cells | 0.002 mL·h^−1·10^6 cells | 0.004 mL·h^−1·10^6 cells | 0.003 mL·h^−1·10^6 cells | 0.003 ± 0.001 mL·h^−1·10^6 cells | – | no effect | – | – | – | – | – | – | – | CCCCN(CCCC)CCCOc1ccc(C(=O)O)cc1 [C-dealkyl-dronedarone]
4 | 25–30% | 25–30% | 0.18 mL·h^−1·10^6 cells | 0.10 mL·h^−1·10^6 cells | 0.10 mL·h^−1·10^6 cells | 0.08 mL·h^−1·10^6 cells | 0.13 ± 0.03 mL·h^−1·10^6 cells | – | no inhibitory effect | – | 7% | 4% | 8% | 0% | 5 ± 3% | around 0.6 μmol/L | CCCCNCCCOc1ccc(C(=O)c2c(CCCC)oc3ccc(NS(C)(=O)=O)cc23)cc1 [N-debutyl-dronedarone]
5 | No metabolism occurred | 50% | 0.06 mL·h^−1·10^6 cells | 0.17 mL·h^−1·10^6 cells | 0.20 mL·h^−1·10^6 cells | 0.14 mL·h^−1·10^6 cells | 0.14 ± 0.05 mL·h^−1·10^6 cells | – | very minor inhibitory effect | – | 36% | 41% | 33% | 34% | 36 ± 3% | – | CCCCc1oc2ccc(NS(C)(=O)=O)cc2c1C(=O)c1ccc(OCCC(=O)O)cc1 [Propanoic acid-dronedarone]
